Test results reported in publication PMC9077138, “An investigation on 3-acetyl-7-methoxy-coumarin Schiff bases and their Ru(II) metallates with potent antiproliferative activity and enhanced LDH and NO release” (RSC Advances, 2018).

How the values were obtained:
CT-DNA = test: UV-Vis absorption titration with CT-DNA; design: species or system calf; details: intrinsic binding constant, Tris–HCl buffer pH 7.2
Source text: DNA-binding studies are important for the rational design and construction of new and more efficient drugs targeted to DNA.[42] The binding affinity of the ligands and their organoruthenium(II) complexes with CT-DNA can be measured by using UV-Vis spectroscopy. The UV-Vis absorption spectra of the free ligands and their complexes in the absence and presence of CT DNA are given in Fig. S25 ^† and 7. […] The decrease in absorbance with increase in concentration of CT-DNA may be due to the decrease in transition probabilities as a result of partial transfer of electrons from the π orbital of the DNA base pairs to the coupled π* orbital of the coordinated Schiff base to metal due to overlapping.[43] The extent of hypochromism in the charge transfer band is an indication of the strength of intercalative interaction.[43]
In order to compare the DNA-binding affinities of the ligands and their metal complexes quantitatively, their intrinsic binding constants Kbin were obtained according to eqn (S1). ^† The binding constant value was calculated from the plot of [DNA]/(εa − εf) versus [DNA] and the data were given in Table 3 (Fig. 8). […] This may be due to the presence of different substituents in the terminal nitrogen atom of the ligands.
Supplementary Information
All the experiments involving CT-DNA binding were carried out in deionised water with tris(hydroxymethyl)-aminomethane (Tris, 5 mM) and sodium chloride (50 mM) and adjusted to pH 7.2 with hydrochloric acid at room temperature. The concentration of CT-DNA was determined by UV absorbance at 260 nm. Solutions of CT-DNA in Tris-HCl buffer gave a ratio of UV absorbance at 260 and 280 nm, A260/A280, of approximately 1.9, […]
The molar absorption coefficient, ε260, was taken as 6600 M−1 cm−1.Various concentrations of CT-DNA (2-2.5 µM) was added to the complexes (25 µM dissolved in DMSO/Tris-HCl buffer, 1 % DMSO in the final solution). While measuring the absorption spectra, an equal amount of DNA was added to both the test and reference solutions to eliminate the absorbance of DNA itself. Control experiments with DMSO were performed and no change in the spectra of CT-DNA was observed. Absorption spectra were recorded after equilibrium at 20 °C for 10 min. The intrinsic binding constant K b was determined by using following equation(1) [DNA]/[εa-εf]) = [DNA]/[ε b-εf]+1/Kb[εb-εf] (S1)
The absorption coefficients εa, εf and εb correspond to Aobsd/[DNA], the extinction coefficient for the free compound and for the compound in the fully bound form respectively. The slope and the intercept of the linear fit of the plot of [DNA]/[εa −εf] versus [DNA] give […] and 1/Kb[εb−εf] respectively. The intrinsic binding constant Kb can be obtained from the ratio of the slope to the intercept. […]

MCF-7 cells = test: Lactate dehydrogenase release; type: cell-based, human; details: MCF-7, IC50 concentrations, 48 h
Protocol: (§1) LDH is a stable cytoplasmic enzyme that is released into the culture medium following loss of membrane integrity and serves as a general mean to assess cytotoxicity resulting from chemical compounds or environmental toxic factors.[68] In the present study, LDH leakage into the culture medium of the compounds treated A549 and MCF-7 cells was analyzed. […] The results confirmed the cytotoxic effect of the ligands and complexes on lung and breast cancer cell lines. The compounds could induce LDH leakage as high as that of cisplatin. […] Error bars represent the standard mean error (n = 6).

A549 cells = test: Lactate dehydrogenase release; type: cell-based, human; details: A549, IC50 concentrations, 48 h
Protocol: as §1

Compound	Binding constant Kbin (CT-DNA)	LDH release into the culture medium (MCF-7 cells)	LDH release into the culture medium (A549 cells)
COc1ccc2[c]3c(c(=O)oc2c1)C(C)=[N+]1N=C(N)[S][Ru-4]31([C]#[O+])([P+](c1ccccc1)(c1ccccc1)c1ccccc1)[P+](c1ccccc1)(c1ccccc1)c1ccccc1 [Complex 1, [Ru(7MAC-tsc)(CO)(PPh3)2]]	1.2544 ± 0.304 × 10^6 M^−1	–	–
CNC1=N[N+]2=C(C)c3[c](c4ccc(OC)cc4oc3=O)[Ru-4]2([C]#[O+])([P+](c2ccccc2)(c2ccccc2)c2ccccc2)([P+](c2ccccc2)(c2ccccc2)c2ccccc2)[S]1 [Complex 2, [Ru(7MAC-mtsc)(CO)(PPh3)2]]	1.3958 ± 0.320 × 10^6 M^−1	–	–
COc1ccc2[c]3c(c(=O)oc2c1)C(C)=[N+]1N=C(Nc2ccccc2)[S][Ru-4]31([C]#[O+])([P+](c1ccccc1)(c1ccccc1)c1ccccc1)[P+](c1ccccc1)(c1ccccc1)c1ccccc1 [Complex 4, [Ru(7MAC-ptsc)(CO)(PPh3)2]]	1.0636 ± 0.334 × 10^6 M^−1	–	–
CCNC1=N[N+]2=C(C)c3[c](c4ccc(OC)cc4oc3=O)[Ru-4]2([C]#[O+])([P+](c2ccccc2)(c2ccccc2)c2ccccc2)([P+](c2ccccc2)(c2ccccc2)c2ccccc2)[S]1 [Complex 3, [Ru(7MAC-etsc)(CO)(PPh3)2]]	1.4428 ± 0.279 × 10^6 M^−1	more potent in inducing LDH leakage into the culture than the rest	more potent in inducing LDH leakage into the culture than the rest
